{"source": "paper PMC8894159", "about": "“Paltusotine, a novel oral once-daily nonpeptide SST2 receptor agonist, suppresses GH and IGF-1 in healthy volunteers” (Pituitary, 2022)", "key": {"[1]": {"experiment": "Single ascending dose plasma pharmacokinetics in healthy volunteers", "assay_type": "in vivo", "conditions": "human", "protocol": "In the single-dose phase, participants were randomized 6:2 to paltusotine (1.25, 2.5, 5, 10, 20, 40, and 60 mg) or placebo in 7 cohorts (S1 to S7). Cohorts comparing oral bioavailability of solution versus capsules and the effect of a standardized high-fat, high-calorie breakfast on oral bioavailability of the capsule formulation employed the 10 mg dose level. In the multiple-dose phase, participants were randomized 6:3 to once-daily oral paltusotine capsules or placebo at doses of 5 mg for 7 days (M1, Day Last = Day 7), and 10, 20, and 30 mg daily for 10 days (M2, M3, M4, Day Last = Day 10). The initial starting dose of 1.25 mg in the single-dose phase was selected for this study based on nonclinical pharmacologic activity, pharmacokinetics, and safety studies. Subsequent doses were either specified in the protocol or were selected by the safety review committee responsible for the safety oversight of the study.\nSingle-dose cohorts: Plasma samples were collected on Day 1 (pre-dose, every 15 min up to 90 min post-dose, then at 2, 3, 4, 6, 8, 10, 12, 18, 24, 48, 72, 96, 120, and 144 h post-dose). Multiple-dose cohorts: For the 5 mg cohort, plasma samples were collected on Day 1 (pre-dose, every 15 min up to 90 min post-dose, then at 2, 3, 4, 6, 8, 10, 12, and 18 h post-dose), Days 2–6 (pre-dose and 2 h post-dose), Day 7 (same time points as Day 1, followed by samples at 18, 24, 48, 72, 96, 120, and 144 h post-dose). For all other multiple-dose cohorts, plasma samples were collected on Day 1 (pre-dose, every 15 min up to 90 min post-dose, then at 2, 3, 4, 6, 8, 10, 12, and 18 h post-dose), Days […] (same time points as Day 1, followed by samples at 18, 24, 48, 72, 96, 120, 144, 192, and 240 h post-dose).\nPlasma pharmacokinetic sample analysis for paltusotine was determined using validated procedures by CPR Pharma Services (Thebarton, Australia). Briefly, plasma paltusotine concentrations were determined by high-pressure liquid chromatography (HPLC) coupled with tandem mass spectrometry detection (MS/MS). Deuterated paltusotine was used as an internal standard. Supported liquid extraction was used to extract paltusotine and the internal standard. The analyte was separated by HPLC using an ACE C18-AR column (Advanced Chromatography Technologies, Ltd, Aberdeen, Scotland), and the eluates were monitored by an API 4000™ LC–MS/MS System (Sciex, Framingham, MA) in positive multiple reaction monitoring mode. The extract was then assayed against a calibration curve. The data were acquired and integrated by the data acquisition software Analyst® (Sciex), linked directly to the API 4000™ LC–MS/MS System, and then processed using Watson LIMS™ software (Thermo Scientific, Waltham, MA), where applicable. The calibration range was 0.100 to 100 ng/mL using 100 μL of plasma, with a lower limit of quantification of 0.100 ng/mL. The inter-assay accuracy was 94% to 100%, and the inter-assay precision (% CV) was between 6.1% and 15%.\nFor assessing pharmacokinetics of paltusotine, the single-dose pharmacokinetic population included all randomized participants who received any amount of study drug with sufficient plasma concentration data. For the multiple-dose cohorts, only participants who received all doses were included. The relative bioavailability of the capsule formulation was determined by comparing its pharmacokinetic parameters with those of the solution formulation at the 10 mg dose. Food effect was determined at the same dose by comparing pharmacokinetic parameters in the fasting state to those when paltusotine was administered with a high-fat, high-calorie meal. For both formulation and food effect, ANOVA with treatment as a fixed effect and subject as a random effect was performed. Data for peak concentration (Cmax), AUC0-last, and AUC0-inf were natural log-transformed."}, "[2]": {"experiment": "Safety and tolerability, multiple-dose cohorts", "assay_type": "in vivo, human", "protocol": "Safety assessments included monitoring of clinical laboratory tests, cardiovascular safety monitoring (continuous Holter monitoring, ECG, telemetry), and physical examinations conducted at scheduled times throughout the study in the research units as well as post-discharge (up to 9 days after the single-dose, or up to 11 days after the last dose for multiple-dose cohorts). Adverse events and concomitant medications were recorded. Laboratory samples for clinical chemistry, hematology, coagulation tests, and urinalysis were collected under fasted conditions. Participants who discontinued prematurely attended an early termination visit. In the multiple-dose cohorts, baseline serum TSH, ACTH, and prolactin samples were collected on Day -2, and an oral glucose tolerance test (OGTT) was conducted on Day -7 or earlier. These assessments were repeated on Day 8 (M1) or Day 11 (M2 and subsequent cohorts). A safety review committee oversaw the study and made decisions to escalate, expand or decrease the dose for the cohorts based on a review of demographics, pharmacokinetics, pharmacodynamics, and safety data in a blinded fashion. For the safety analysis, adverse events were coded using the Medical Dictionary for Regulatory Activities (MedDRA® Version 20.0). Adverse events were grouped by preferred terms. Treatment-emergent adverse events (TEAEs) were summarized with descriptive statistics."}, "[3]": {"conditions": "oral, single dose 40 mg capsules, fasted, mean ± SD"}, "[4]": {"conditions": "oral, single dose 60 mg capsules, fasted, mean ± SD"}, "[5]": {"conditions": "single dose 1.25 mg oral solution, fasted, mean ± SD"}, "[6]": {"conditions": "single dose 2.5 mg oral solution, fasted, mean ± SD"}, "[7]": {"conditions": "single dose 5 mg oral solution, fasted, mean ± SD"}, "[8]": {"conditions": "single dose 10 mg oral solution, fasted, mean ± SD"}, "[9]": {"conditions": "single dose 20 mg oral solution, fasted, mean ± SD"}, "[10]": {"conditions": "multiple-dosing, safety population N = 24"}, "[11]": {"conditions": "multiple-dosing, safety population N = 24, listed as Paltusotine"}, "[12]": {"conditions": "one subject, cohort M3 20 mg, discontinued after Day 5"}}, "note": "Where two headings read alike, the source gives them in different places.", "data": [{"molecule": "Cl.N#Cc1cccc(-c2ccc3ncc(-c4cc(F)cc(F)c4)c(N4CCC(N)CC4)c3c2)c1O", "note": "[paltusotine, 3-[4-(4-Aminopiperidin-1-yl)-3-(3,5-difluorophenyl)quinolin-6-yl]-2-hydroxybenzonitrile hydrochloride]", "values": [{"measurement": "half-life", "setting": "[1]; oral, overall summary (abstract), read-out: half-life of elimination (converted)", "result": "~30", "unit": "h"}, {"measurement": "half-life", "setting": "[1]; oral, sampling up to 144 h post-dose (single-dose cohorts and 5 mg multiple-dose cohort), range, read-out: t1/2 (converted)", "result": "22 to 34", "unit": "h"}, {"measurement": "AUC(0-inf)", "setting": "[1]; [3]", "result": "2650 ± 1200", "unit": "ng·h/mL"}, {"measurement": "Cmax", "setting": "[1]; [3]", "result": "185 ± 118", "unit": "ng/mL"}, {"measurement": "Tmax", "setting": "[1]; oral, single dose 40 mg capsules, fasted, mean ± SD, read-out: Tmax", "result": "3.4 ± 1.1", "unit": "h"}, {"measurement": "half-life", "setting": "[1]; oral, single dose 40 mg capsules, fasted, mean ± SD, read-out: t1/2 (converted)", "result": "27 ± 3.1", "unit": "h"}, {"measurement": "AUC(0-inf)", "setting": "[1]; [4]", "result": "2300 ± 1060", "unit": "ng·h/mL"}, {"measurement": "Cmax", "setting": "[1]; [4]", "result": "154 ± 77.6", "unit": "ng/mL"}, {"measurement": "Tmax", "setting": "[1]; oral, single dose 60 mg capsules, fasted, mean ± SD, read-out: Tmax", "result": "3 ± 1.2", "unit": "h"}, {"measurement": "half-life", "setting": "[1]; oral, single dose 60 mg capsules, fasted, mean ± SD, read-out: t1/2 (converted)", "result": "25 ± 2.1", "unit": "h"}, {"measurement": "AUC(0-inf)", "setting": "[1]; [5]", "result": "122 ± 25.7", "unit": "ng·h/mL"}, {"measurement": "Cmax", "setting": "[1]; [5]", "result": "9.81 ± 1.56", "unit": "ng/mL"}, {"measurement": "Tmax", "setting": "[1]; single dose 1.25 mg oral solution, fasted, mean ± SD, read-out: Tmax", "result": "1.3 ± 0.44", "unit": "h"}, {"measurement": "half-life", "setting": "[1]; single dose 1.25 mg oral solution, fasted, mean ± SD, read-out: t1/2 (converted)", "result": "22 ± 5.5", "unit": "h"}, {"measurement": "AUC(0-inf)", "setting": "[1]; [6]", "result": "320 ± 66.3", "unit": "ng·h/mL"}, {"measurement": "Cmax", "setting": "[1]; [6]", "result": "22.7 ± 4.74", "unit": "ng/mL"}, {"measurement": "Tmax", "setting": "[1]; single dose 2.5 mg oral solution, fasted, mean ± SD, read-out: Tmax", "result": "1.6 ± 0.8", "unit": "h"}, {"measurement": "half-life", "setting": "[1]; single dose 2.5 mg oral solution, fasted, mean ± SD, read-out: t1/2 (converted)", "result": "29 ± 9", "unit": "h"}, {"measurement": "AUC(0-inf)", "setting": "[1]; [7]", "result": "590 ± 93.7", "unit": "ng·h/mL"}, {"measurement": "Cmax", "setting": "[1]; [7]", "result": "48.1 ± 7.05", "unit": "ng/mL"}, {"measurement": "Tmax", "setting": "[1]; single dose 5 mg oral solution, fasted, mean ± SD, read-out: Tmax", "result": "1.3 ± 0.41", "unit": "h"}, {"measurement": "half-life", "setting": "[1]; single dose 5 mg oral solution, fasted, mean ± SD, read-out: t1/2 (converted)", "result": "25 ± 9.4", "unit": "h"}, {"measurement": "AUC(0-inf)", "setting": "[1]; [8]", "result": "1650 ± 464", "unit": "ng·h/mL"}, {"measurement": "Cmax", "setting": "[1]; [8]", "result": "95.2 ± 19.3", "unit": "ng/mL"}, {"measurement": "Tmax", "setting": "[1]; single dose 10 mg oral solution, fasted, mean ± SD, read-out: Tmax", "result": "2.2 ± 1.3", "unit": "h"}, {"measurement": "half-life", "setting": "[1]; single dose 10 mg oral solution, fasted, mean ± SD, read-out: t1/2 (converted)", "result": "29 ± 4.3", "unit": "h"}, {"measurement": "AUC(0-inf)", "setting": "[1]; [9]", "result": "2960 ± 963", "unit": "ng·h/mL"}, {"measurement": "Cmax", "setting": "[1]; [9]", "result": "167 ± 29.1", "unit": "ng/mL"}, {"measurement": "Tmax", "setting": "[1]; single dose 20 mg oral solution, fasted, mean ± SD, read-out: Tmax", "result": "1.9 ± 1", "unit": "h"}, {"measurement": "half-life", "setting": "[1]; single dose 20 mg oral solution, fasted, mean ± SD, read-out: t1/2 (converted)", "result": "29 ± 5", "unit": "h"}, {"measurement": "Tmax", "setting": "[1]; single-dose oral solution, fasted, range across 1.25-20 mg, read-out: Tmax (time of median peak concentrations)", "result": "1.3 to 2.2", "unit": "h"}, {"measurement": "half-life", "setting": "[1]; single-dose oral solution, fasted, range across 1.25-20 mg, read-out: apparent terminal elimination t1/2", "result": "22 to 29", "unit": "h"}, {"measurement": "increase in glucose AUC0-3 upon 75 g oral glucose challenge compared to baseline", "setting": "[2]; 30 mg multiple dose, 95% CI 1.8-4.6, placebo 1.5", "result": 3.2, "unit": "mmol·h/L"}, {"measurement": "heart rate, ECG morphology, PR duration, QRS interval, QTcF interval", "setting": "[2]; all cohorts", "result": "no clinically meaningful changes"}, {"measurement": "fasting plasma glucose", "setting": "[2]; multiple-dose cohorts", "result": "not significantly changed"}, {"measurement": "share of TEAEs occurring at a dose level of 10 mg or higher", "setting": "[2]; multiple-dose cohorts", "result": 78, "unit": "%"}, {"measurement": "Abdominal pain (TEAE)", "setting": "[2]; [10]", "result": "4 n (%)"}, {"measurement": "Diarrhea (TEAE)", "setting": "[2]; [10]", "result": "4 n (%)"}, {"measurement": "Headache (TEAE)", "setting": "[2]; [10]", "result": "3 n (%)"}, {"measurement": "Hyperglycemia (TEAE)", "setting": "[2]; [10]", "result": "2 (8.3%) n (%)"}, {"measurement": "Lipase/pancreatic enzymes increased (TEAE)", "setting": "[2]; [10]", "result": "2 (8.3%) n (%)"}, {"measurement": "Participants with at least 1 TEAE", "setting": "[2]; [10]", "result": "17 (70.8%) n (%)"}, {"measurement": "Upper respiratory tract infection (TEAE)", "setting": "[2]; [10]", "result": "2 (8.3%) n (%)"}, {"measurement": "Ventricular tachycardia (non-sustained) (TEAE)", "setting": "[2]; [10]", "result": "2 (8.3%) n (%)"}, {"measurement": "Abdominal pain (TEAE)", "setting": "[2]; [11]", "result": "4 (16.7%) n (%)"}, {"measurement": "Diarrhea (TEAE)", "setting": "[2]; [11]", "result": "4 (16.7%) n (%)"}, {"measurement": "Headache (TEAE)", "setting": "[2]; [11]", "result": "3 (12.5%) n (%)"}, {"measurement": "amylase peak", "setting": "[2]; [12]", "result": "2 times the upper limit of normal"}, {"measurement": "lipase peak", "setting": "[2]; [12]", "result": "3.9 times the upper limit of normal"}, {"measurement": "lipase elevation", "setting": "[2]; one subject, cohort M4 30 mg, 24 h after the tenth dose", "result": "1.7 times the upper limit of normal"}, {"measurement": "TSH, ACTH, or prolactin levels", "setting": "[2]; repeated administration", "result": "no consistent trends of clinical relevance"}, {"measurement": "tolerability", "setting": "[2]; repeated daily capsules, 7 days (5 mg) and 10 days (10, 20, 30 mg)", "result": "well tolerated"}]}]}
